Type in all cases: in vivo
Experiment [1] deals with Echinochloa (Ds). In words: Pre-emergence herbicidal action (Example B1). The following applies: 1000 g of active ingredient/ha, after 4 weeks, scale of nine ratings. The procedure: (§1) Monocotyledonous and dicotyledonous test plants are sown in standard soil in pots. Immediately after sowing, the test compounds, in the form of an aqueous suspension (prepared from a wettable powder (Example F3, b) according to WO 97/34485) or in the form of an emulsion (prepared from an emulsifiable concentrate (Example F1, c) according to WO 97/34485), are applied by spraying in an optimum concentration (500 litres of water/ha). The test plants are then grown in a greenhouse under optimum conditions. After a test duration of 4 weeks, the test is evaluated in accordance with a scale of nine ratings (1=total damage, 9=no action). Ratings of from 1 to 4 (especially from 1 to 3) indicate good to very good herbicidal action. Test plants: Panicum, Echinochloa (Ds), Amaranthus, Chenopodium, Stellaria, Veronica.

Experiment [2] deals with Panicum. In words: Pre-emergence herbicidal action (Example B1). The following applies: 1000 g of active ingredient/ha, after 4 weeks, scale of nine ratings. The procedure:
as §1

The subject of experiment [3] is Amaranthus. In words: Pre-emergence herbicidal action (Example B1). The arrangement: key: 1=total damage; 9=no action; Ratings of from 1 to 4 (especially from 1 to 3) indicate good to very good herbicidal action. Particulars: 1000 g of active ingredient/ha, after 4 weeks, scale of nine ratings. As for the experimental part: as §1
Experiment [4] concerns Chenopodium. In words: Pre-emergence herbicidal action (Example B1). More on the design: key: 1=total damage; 9=no action; Ratings of from 1 to 4 (especially from 1 to 3) indicate good to very good herbicidal action. Particulars: 1000 g of active ingredient/ha, after 4 weeks, scale of nine ratings. As for the experimental part: as §1
Experiment [5] concerns Stellaria. In words: Pre-emergence herbicidal action (Example B1). Particulars: 1000 g of active ingredient/ha, after 4 weeks, scale of nine ratings. More on the design: key: 1=total damage; 9=no action; Ratings of from 1 to 4 (especially from 1 to 3) indicate good to very good herbicidal action. As for the experimental part: as §1
In experiment [6] the test system is Veronica. In words: Pre-emergence herbicidal action (Example B1). More on the design: key: 1=total damage; 9=no action; Ratings of from 1 to 4 (especially from 1 to 3) indicate good to very good herbicidal action. The following applies: 1000 g of active ingredient/ha, after 4 weeks, scale of nine ratings. As for the experimental part:
as §1

Experiment [7] deals with Euphorbia. In words: Post-emergence herbicidal action (Example B2). The following applies: post-emergence (2- to 3-leaf stage), 1000 g of active ingredient/ha, after 2 to 3 weeks, scale of nine ratings. As for the experimental part: as §1, with “pots. When the test plants are at the 2- to 3-leaf stage,” for “pots. Immediately after sowing,”, “grown on” for “grown”, “of 2 to 3” for “of 4”, “Panicum, Euphorbia,” for “Panicum, Echinochloa (Ds),”

Experiment [8] concerns Stellaria. In words: Post-emergence herbicidal action (Example B2). The following applies: post-emergence (2- to 3-leaf stage), 1000 g of active ingredient/ha, after 2 to 3 weeks, scale of nine ratings. The procedure:
as §1, with “pots. When the test plants are at the 2- to 3-leaf stage,” for “pots. Immediately after sowing,”, “grown on” for “grown”, “of 2 to 3” for “of 4”, “Panicum, Euphorbia,” for “Panicum, Echinochloa (Ds),”

Experiment [9] deals with Veronica. In words: Post-emergence herbicidal action (Example B2). Particulars: post-emergence (2- to 3-leaf stage), 1000 g of active ingredient/ha, after 2 to 3 weeks, scale of nine ratings. The procedure:
as §1, with “pots. When the test plants are at the 2- to 3-leaf stage,” for “pots. Immediately after sowing,”, “grown on” for “grown”, “of 2 to 3” for “of 4”, “Panicum, Euphorbia,” for “Panicum, Echinochloa (Ds),”

The subject of experiment [10] is Amaranthus. In words: Post-emergence herbicidal action (Example B2). The arrangement: key: 1=total damage; 9=no action; Ratings of from 1 to 4 (especially from 1 to 3) indicate good to very good herbicidal action. Particulars: post-emergence (2- to 3-leaf stage), 1000 g of active ingredient/ha, after 2 to 3 weeks, scale of nine ratings. The procedure:
as §1, with “pots. When the test plants are at the 2- to 3-leaf stage,” for “pots. Immediately after sowing,”, “grown on” for “grown”, “of 2 to 3” for “of 4”, “Panicum, Euphorbia,” for “Panicum, Echinochloa (Ds),”

Experiment [11] concerns Chenopodium. In words: Post-emergence herbicidal action (Example B2). The arrangement: key: 1=total damage; 9=no action; Ratings of from 1 to 4 (especially from 1 to 3) indicate good to very good herbicidal action. The following applies: post-emergence (2- to 3-leaf stage), 1000 g of active ingredient/ha, after 2 to 3 weeks, scale of nine ratings. The procedure:
as §1, with “pots. When the test plants are at the 2- to 3-leaf stage,” for “pots. Immediately after sowing,”, “grown on” for “grown”, “of 2 to 3” for “of 4”, “Panicum, Euphorbia,” for “Panicum, Echinochloa (Ds),”

Each structure is given as a SMILES string.

For `COc1cc(F)ccc1OCC#Cc1ccc(Cl)nc1` [1.004, 2-Chloro-5-[3-(4-fluoro-2-methoxy-phenoxy)-prop-1-ynyl]-pyridine], in [1], the “Echinochloa (Ds), herbicidal rating” value is on record as 2. Besides, the “Panicum, herbicidal rating” value in [2] was 2. In addition, the “Amaranthus, herbicidal rating” value in [3] and in [10] was 1 in each case. Further, the “Chenopodium, herbicidal rating” value in experiment [4] and in experiment [11] was 1 each time. Moreover, the results for the “Stellaria, herbicidal rating” value in experiment [5] and in [8] were 1 and 2, respectively. For the same compound, the figures for the “Veronica, herbicidal rating” value in experiment [6] and in experiment [9] were 1 and 2, respectively. Besides, in [7], the “Euphorbia, herbicidal rating” value is on record as 2.

The record behind these values is patent publication US20040248739A1, “Pyridylpropynyloxyphenyl derivatives for use as herbicides” (priority 2001, published 2004).
